Legend:
[1] = target: T1, Focal Adhesion Kinase (full-length Flag-tagged human FAK) (Homo sapiens, UniProt Q05397); test: in vitro FAK ELISA kinase assay; type: biochemical; conditions: compound 10 uM, ATP 2 uM; for inhibition at 10 µM: read-out: FAK % Inhib ave: 10 uM
T1 construct: a purified recombinant full-length Flag-tagged human FAK protein; Flag; made in house; host or cells: baculovirus infected insect cells
How it was run: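 Plate-coated GST fusion of the 73-residue region around Tyr397 phosphorylated by full-length Flag-tagged human FAK from baculovirus-infected insect cells, with 2 μM ATP in Mg/Mn HEPES pH 7.5, 1 h at 30 °C. Phosphotyrosine detected by HRP-anti-pTyr ELISA with TMB read-out. Compounds screened at 10 μM or titrated from 50 μM in half-log steps for IC50, BSA-substrate background subtracted.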

[2] = target: T2, CAK complex (human Cdk7, human Cyclin H, MAT-1) (Homo sapiens, UniProt P50613); test: in vitro time-resolved-fluorescence assay for the CAK kinase activity; type: biochemical; conditions: compound 20 uM; for inhibition at 20 µM: read-out: CAK % inhib
T2 construct: made in house; host or cells: SF-900 insect cells co-infected with Flag-Cdk7 and Bab-Cyclin H baculoviruses
How it was run: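 Kinase activity of the human CAK complex (Flag-tagged Cdk7, Cyclin H, MAT-1), purified from co-infected SF-900 insect cells by Flag-M2 immunoaffinity, was measured by time-resolved fluorescence. In black glutathione-coated 96-well plates, 500 ng GST-CTD substrate with 22 uM ATP was mixed with compound in 30% DMSO/25 mM Hepes and 250 ng CAK. Plates were incubated 20 minutes at 30° C, then stopped with EDTA, bound overnight and washed. A Europium-labeled antibody detected serine-phosphorylated CTD.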

T2 sequence (P50613 with tags, fused parts or gaps): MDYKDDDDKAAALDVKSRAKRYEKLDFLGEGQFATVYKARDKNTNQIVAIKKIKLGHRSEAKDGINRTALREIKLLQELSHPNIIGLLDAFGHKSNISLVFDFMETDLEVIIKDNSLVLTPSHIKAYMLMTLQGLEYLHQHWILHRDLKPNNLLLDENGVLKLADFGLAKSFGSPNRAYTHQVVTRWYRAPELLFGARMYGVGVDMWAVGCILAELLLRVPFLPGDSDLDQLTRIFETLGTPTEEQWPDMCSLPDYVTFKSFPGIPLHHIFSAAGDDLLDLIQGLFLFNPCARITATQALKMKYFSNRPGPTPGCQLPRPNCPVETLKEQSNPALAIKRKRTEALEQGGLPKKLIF
T2 sequence (as listed by the source partner): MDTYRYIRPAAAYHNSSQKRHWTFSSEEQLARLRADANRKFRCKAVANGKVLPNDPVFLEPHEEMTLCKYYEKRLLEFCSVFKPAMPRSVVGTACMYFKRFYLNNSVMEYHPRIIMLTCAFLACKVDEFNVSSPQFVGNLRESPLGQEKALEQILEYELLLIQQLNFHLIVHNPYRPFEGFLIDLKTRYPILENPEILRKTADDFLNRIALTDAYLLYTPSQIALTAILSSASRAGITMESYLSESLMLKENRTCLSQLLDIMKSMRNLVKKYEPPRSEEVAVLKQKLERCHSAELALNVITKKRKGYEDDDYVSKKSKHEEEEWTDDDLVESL
T1 sequence (Q05397 whole entry): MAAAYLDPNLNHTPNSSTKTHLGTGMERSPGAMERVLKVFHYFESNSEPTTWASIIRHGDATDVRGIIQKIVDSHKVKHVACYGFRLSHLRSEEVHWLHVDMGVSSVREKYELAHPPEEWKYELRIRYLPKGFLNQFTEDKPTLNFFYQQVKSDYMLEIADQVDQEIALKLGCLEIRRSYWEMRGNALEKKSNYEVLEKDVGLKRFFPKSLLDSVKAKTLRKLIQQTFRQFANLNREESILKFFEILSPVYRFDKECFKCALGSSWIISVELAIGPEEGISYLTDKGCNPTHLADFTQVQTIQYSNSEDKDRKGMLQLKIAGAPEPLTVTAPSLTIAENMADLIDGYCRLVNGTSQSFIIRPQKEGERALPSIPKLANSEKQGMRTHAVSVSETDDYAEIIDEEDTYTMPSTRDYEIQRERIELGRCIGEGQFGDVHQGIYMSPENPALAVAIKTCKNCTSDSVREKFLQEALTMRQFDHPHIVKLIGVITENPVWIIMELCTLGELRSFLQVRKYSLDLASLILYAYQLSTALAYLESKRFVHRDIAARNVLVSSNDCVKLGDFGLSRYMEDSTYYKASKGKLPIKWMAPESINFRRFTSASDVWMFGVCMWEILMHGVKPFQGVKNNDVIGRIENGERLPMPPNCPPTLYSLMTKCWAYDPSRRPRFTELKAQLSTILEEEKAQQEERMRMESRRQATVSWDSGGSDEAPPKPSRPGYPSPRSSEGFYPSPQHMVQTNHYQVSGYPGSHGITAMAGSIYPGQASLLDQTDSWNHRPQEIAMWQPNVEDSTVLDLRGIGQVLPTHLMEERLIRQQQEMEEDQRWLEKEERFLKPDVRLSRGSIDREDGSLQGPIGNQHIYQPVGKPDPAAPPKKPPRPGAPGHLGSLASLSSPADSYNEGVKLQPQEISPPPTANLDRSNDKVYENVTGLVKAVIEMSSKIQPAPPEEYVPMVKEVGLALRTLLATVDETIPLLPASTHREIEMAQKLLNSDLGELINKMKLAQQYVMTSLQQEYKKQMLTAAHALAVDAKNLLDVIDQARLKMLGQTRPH

Row | SMILES | inhibition at 10 µM [1] [%] | inhibition at 20 µM [2] [%] | FAK % Inhib ave: 10 uM [1] [%] | CAK % inhib; 20 uM [2] [%]
1 | O=C(NCCCN1CCCC1)c1cccc(Nc2ncc3nnn(-c4ccc5c(c4)CCC5)c3n2)c1 [Compound 72, 3-(3-Indan-5-yl-3H-[1,2,3]triazolo[4,5-d]pyrimidin-5-ylamino)-N-(3-pyrrolidin-1-yl-propyl)-benzamide] | 81.5 | 98.4 | – | –
2 | O=C(NCCCn1ccnc1)c1cccc(Nc2ncc3nnn(-c4ccc5c(c4)CCC5)c3n2)c1 [Compound 79, N-(3-Imidazol-1-yl-propyl)-3-(3-indan-5-yl-3H-[1,2,3]triazolo[4,5-d]pyrimidin-5-ylamino)-benzamide] | 80 | 86.6 | – | –
3 | CCN(CC)CCOC(=O)c1ccc(Nc2ncc3nnn(-c4ccc5c(c4)CCC5)c3n2)cc1 [Compound 33, 4-(3-Indan-5-yl-3H-[1,2,3]triazolo[4,5-d]pyrimidin-5-ylamino)-benzoic acid 2-diethylamino-ethyl ester] | – | – | 28.57 | 42.00
4 | NS(=O)(=O)c1ccccc1-n1nnc2cnc(Nc3ccc4[nH]ncc4c3)nc21 [Compound 45, 2-[5-(1H-Indazol-5-ylamino)-[1,2,3]triazolo[4,5-d]pyrimidin-3-yl]-benzene-sulfonamide] | 21.8 | 16.2 | – | –
5 | CN(Cc1ccccc1-n1nnc2cnc(Nc3ccc4c(c3)CCC4)nc21)C1CCCCC1 [Compound 20, (3-{2-[(Cyclohexyl-methyl-amino)-methyl]-phenyl}-3H-[1,2,3]triazolo[4,5-d]pyrimidin-5-yl)-indan-5-yl-amine] | 13 | 12.5 | – | –
6 | CCN(CC)CCNC(=O)c1ccc(Nc2ncc3nnn(-c4cccc(-c5nnn[nH]5)c4)c3n2)cc1 [Compound 62, N-(2-Diethylamino-ethyl)-4-{3-[3-(1H-tetrazol-5-yl)-phenyl]-3H-[1,2,3]triazolo[4,5-d]pyrimidin-5-ylamino}-benzamide] | 66.7 | 45.3 | – | –
7 | O=C(NCCCN1CCCC1=O)c1ccc(Nc2ncc3nnn(-c4ccc5c(c4)CCC5)c3n2)cc1 [Compound 77, 4-(3-Indan-5-yl-3H-[1,2,3]triazolo[4,5-d]pyrimidin-5-ylamino)-N-[3-(2-oxo-pyrrolidin-1-yl)-propyl]-benzamide] | 54.2 | 72.1 | – | –
8 | CCN(CC)CCCOc1ccc(Nc2ncc3nnn(-c4ccc5c(c4)CCC5)c3n2)cc1 [Compound 87, [4-(3-Diethylamino-propoxy)-phenyl]-(3-indan-5-yl-3H-[1,2,3]triazolo[4,5-d]pyrimidin-5-yl)-amine] | 81.5 | 99.5 | – | –
9 | CCN(CC)CCNC(=O)c1ccc(-n2nnc3cnc(Nc4cccc(-c5nnn[nH]5)c4)nc32)cc1 [Compound 65, N-(2-Diethylamino-ethyl)-4-{5-[3-(1H-tetrazol-5-yl)-phenylamino]-[1,2,3]triazolo[4,5-d]pyrimidin-3-yl}-benzamide] | 54.7 | 42.7 | – | –
10 | c1ccc(CN2CCN(c3ccc(Nc4ncc5nnn(Cc6ccccc6)c5n4)cc3)CC2)cc1 [Compound 59, [4-(4-Benzyl-piperazin-1-yl)-phenyl]-(3-benzyl-3H-[1,2,3]triazolo[4,5-d]pyrimidin-5-yl)-amine] | 25 | 47 | – | –
